# Experimental data reported in patent US8242055B2, “Herbicidally and insecticidally active phenyl-substituted pyridazinones” (Bayer Cropscience AG, priority 2008, dated 2012).
# Legend:
# [1] = test system: eggs of the tobacco bud worm (Heliothis virescens); test: Heliothis virescens test (spray treatment); format: in vivo; details: spray treatment of soybean leaves, application rate 500 g/ha, after 7 days; 100% = all eggs killed
# Description: [table] To produce a suitable preparation of active compound, 1 part by weight of active compound is mixed with the stated amounts of solvents and emulsifier, and the concentrate is diluted with emulsifier-containing water to the desired concentration. Soybean leaves (Glycine max.) are sprayed with an active compound preparation of the desired concentration and, after drying, populated with eggs of the tobacco bud worm (Heliothis virescens). After 7 days, the effect in % is determined. 100% means that all the eggs have been killed; 0% means that none of the eggs have been killed.
# [2] = test system: Meloidogyne incognita; test: Meloidogyne incognita test (MELGIN); format: in vivo; details: application rate 20 ppm, lettuce roots; 100% = no galls formed
# Description: [table] To produce a suitable preparation of active compound, 1 part by weight of active compound is mixed with the stated amounts of solvents and emulsifier, and the concentrate is diluted with water to the desired concentration. Containers are filled with sand, solution of active compound, Meloidogyne incognita egg/larvae suspension and lettuce seeds. The lettuce seeds germinate and the plants develop. On the roots, galls are formed. After the desired period of time, the nematicidal activity is determined in % by the formation of galls. 100% means that no galls are formed; 0% means that the number of galls on the treated plants corresponds to that of the untreated control.
compound,measurement,setting,value
"Cn1ncc(O)c(-c2ccc(Cl)c(Cl)c2)c1=O [I-1-a-4, 4-(3,4-dichlorophenyl)-5-hydroxy-2-methyl-3(2H)-pyridazinone]",melting point,,315 °C
CC(C)(C)n1ncc(O)c(-c2ccc(Cl)cc2Cl)c1=O [I-1-a-5],effect in % (eggs killed),[1],at least 80%
CC(C)(C)n1ncc(O)c(-c2cc(-c3ccc(Cl)cc3)ccc2Cl)c1=O [I-1-a-10],nematicidal activity in % by the formation of galls,[2],at least 80%
